Source: article PMC10980839 (Drug Design, Development and Therapy, 2024)
Entries after “also recorded” stand apart in the source; their conditions may differ.

Assays:
[1] = tested on: rat liver microsomes (RLMs); experiment: Inhibitory effect of baohuoside I on tofacitinib metabolism in RLMs; type: in vitro ADME; conditions: Lineweaver-Burk plot
[2] = cited from earlier work
[3] = tested on: rat liver microsomes (RLMs); conditions: tofacitinib 1-400 μM, 0.5 mg/mL RLMs, 1 mM NADPH, 37 °C, 30 min

| SMILES | inhibition mechanism on tofacitinib metabolism [1] | plasma protein binding [2] | Km [3] [µM] | Vmax [3] [ng/min/mg] |
| --- | --- | --- | --- | --- |
| COc1ccc(-c2oc3c(CC=C(C)C)c(O)cc(O)c3c(=O)c2O[C@@H]2O[C@@H](C)[C@H](O)[C@@H](O)[C@H]2O)cc1 [Baohuoside I] | a mixture of non-competitive and competitive inhibition; also recorded: a combination of non-competitive and competitive inhibition | – | – | – |
| C[C@@H]1CCN(C(=O)CC#N)C[C@@H]1N(C)c1ncnc2[nH]ccc12 [Tofacitinib] | – | about 40% | 39.9 | 4.2824 |
